Data published in ChEMBL document CHEMBL1150449, “Conversion of acyclic nonpeptide CCK antagonists into CCK agonists” (Bioorg Med Chem Lett, 1997).

Assays:
[1] = molecular target: Cholecystokinin receptor type A (Cavia porcellus); test: Concentration of compound that induced 50% of the maximal contraction in guinea pig gallbladder tissue when tested in vitro
[2] = molecular target: T1, Cholecystokinin receptor type A (Homo sapiens, UniProt P32238); test: Tested for the 50% displacement of [125I]CCK-8 from membrane preparation isolated from CHO-K1 cells stably transfected with the cDNA of human Cholecystokinin type A receptor; format: cell membranes
T1 sequence (P32238 whole entry): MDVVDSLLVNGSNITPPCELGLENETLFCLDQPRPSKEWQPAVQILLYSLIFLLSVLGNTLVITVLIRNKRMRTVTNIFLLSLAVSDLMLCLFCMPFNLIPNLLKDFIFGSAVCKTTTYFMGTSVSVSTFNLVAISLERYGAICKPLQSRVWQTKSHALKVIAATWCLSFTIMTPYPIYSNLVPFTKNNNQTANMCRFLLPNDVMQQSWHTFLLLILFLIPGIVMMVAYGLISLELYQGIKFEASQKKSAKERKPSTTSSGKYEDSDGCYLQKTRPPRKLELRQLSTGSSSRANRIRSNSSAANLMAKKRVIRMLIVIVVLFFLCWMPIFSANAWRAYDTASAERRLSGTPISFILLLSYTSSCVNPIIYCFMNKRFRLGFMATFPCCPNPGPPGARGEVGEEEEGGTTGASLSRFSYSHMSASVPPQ

[3] = molecular target: T2, Gastrin/cholecystokinin type B receptor (Homo sapiens, UniProt P32239); test: Tested for 50% displacement of [125I]CCK-8 from membrane preparation isolated from CHO-K1 cells stably transfected with the cDNA of human Cholecystokinin type B receptor; format: cell membranes
T2 sequence (P32239 whole entry): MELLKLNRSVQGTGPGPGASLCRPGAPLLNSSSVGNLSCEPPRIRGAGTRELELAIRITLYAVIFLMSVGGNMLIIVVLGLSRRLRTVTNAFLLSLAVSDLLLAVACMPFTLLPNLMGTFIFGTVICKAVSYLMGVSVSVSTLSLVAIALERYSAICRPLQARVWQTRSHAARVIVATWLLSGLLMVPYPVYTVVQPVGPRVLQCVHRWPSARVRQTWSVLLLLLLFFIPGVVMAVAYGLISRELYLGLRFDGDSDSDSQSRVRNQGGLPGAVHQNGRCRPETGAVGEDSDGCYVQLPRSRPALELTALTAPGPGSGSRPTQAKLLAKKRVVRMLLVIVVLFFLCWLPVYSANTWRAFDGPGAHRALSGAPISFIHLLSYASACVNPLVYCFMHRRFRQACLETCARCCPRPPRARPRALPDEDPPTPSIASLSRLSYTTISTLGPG

Mus musculus = test: Tested in vivo for the relative efficacy (relative to CCK-8 (1 nmol/kg)) for mouse gallbladder emptying after ip administration (0.1 umol/kg); format: functional

| SMILES | EC50 [1] | IC50 [2] | IC50 [3] | Relative efficacy (Mus musculus) |
| --- | --- | --- | --- | --- |
| CC(C)N(C(=O)CN(C(=O)[C@@H](CCC(=O)O)NC(=O)Nc1ccccc1)c1ccccc1)c1ccccc1 | 0.21 µM | 1.58 µM | 10 µM | 0.6 |
| COc1ccc(N(C(=O)CN(C(=O)[C@H](CCC(=O)O)NC(=O)Nc2ccccc2)c2ccccc2)C(C)C)cc1 | 5.6 µM |  |  |  |
| COc1ccc(N(C(=O)CN(C(=O)[C@@H](CCC(=O)O)NC(=O)Nc2ccccc2)c2ccccc2)C(C)C)cc1 | 0.11 µM | 0.251 µM | 31.6 µM | 0.8 |
| CC(C)N(C(=O)CN(C(=O)CNC(=O)Nc1ccccc1)c1ccccc1)c1ccccc1 | 0.3 µM | 3.16 µM | 1.58 µM | <0.2 |
| CCCCCN(CC(=O)N(c1ccccc1)C(C)C)C(=O)[C@@H](CCC(=O)O)NC(=O)Nc1ccccc1 |  |  |  | 0.3 |
